In article PMC10812672, “Short Antimicrobial Peptide Derived from the Venom Gland Transcriptome of Pamphobeteus verdolaga Increases Gentamicin Susceptibility of Multidrug-Resistant Klebsiella pneumoniae” (Antibiotics, 2023):
Ends that are not written are not given here.

Legend:
S. aureus ATCC® 29213 = assay type: cell-based, Staphylococcus aureus; conditions: CLSI broth microdilution, Mueller-Hinton broth, peptide 30 µM, ~6 × 10^6 CFU/mL, 24 h 37 °C, OD600; triplicate, three independent assays; NA = no activity
Method: (§1) Activity screening was conducted using the broth microdilution method at a fixed peptide concentration of 30 µM against E. coli ATCC® 8739 and 25922, as well as S. aureus ATCC® 6538 and 29213. The bacterial density used for screening was approximately 6 × 10^6 CFU/mL [30]. Peptide activity measurements were conducted in terms of the growth inhibition percentage. No dose-response curves were generated during the screening phase as a resource optimization strategy in the initial activity evaluation. […] For S. aureus ATCC® 6538 and S. aureus ATCC® 29213, growth inhibition ranged from 0% to 140% and 0% to 98%, respectively (Table 1).
(§2) The evaluation of the antimicrobial activity of the peptides was conducted using the CLSI’s broth microdilution method for bacterial susceptibility testing. For the screening phase, peptides were evaluated at a single 30 μM concentration, in triplicate and in three independent assays, against the E. coli ATCC® 8739, E. coli ATCC® 25922, S. aureus ATCC® 6538, or S. aureus ATCC® 29213 reference USP and CLSI strains. For the determination of MIC, MBC, or IC50, peptides or antibiotics were evaluated in concentrations between 1.56–200 µM. These evaluations were conducted in triplicate and in three independent assays, against the E. coli ATCC® 25922, S. aureus ATCC® 29213, E. faecalis ATCC® 49532, P. aeruginosa ATCC® 9027, and K. pneumoniae ATCC® BAA-1705, or the clinically isolated MDR strain. In detail, 1 mL of a glycerol stock solution of the ATCC® or clinically isolated bacterial strain was added to 9 mL of Mueller-Hinton Broth and incubated for 18 h, 180 rpm and 37 °C (Incubator 1000, Heidolph Instruments, Schwabach, Germany). After the incubation, 1 mL of the previous solution was transferred to a new recipient containing 9 mL of fresh Mueller-Hinton broth and incubated for 4 h, 180 rpm and 37 °C (Incubator 1000, Heidolph Instruments, Schwabach, Germany). During the second incubation, the peptides or the antibiotics were dissolved in PBS pH 7.20 in concentrations between 19.53–2500 µM (MC5 Micro Balance, Sartorius AG, Göttingen, Germany). An amount of 10 µL of either peptide or antibiotic was dispensed in triplicate in 96-well flat bottom culture plates, along with 10 µL of PBS (Negative activity control), BTM-P1 (Positive activity control), or 10 µL of Mueller-Hinton broth (Blank); then, 110 µL of Mueller-Hinton broth was poured in all wells. Following this, the bacteria were suspended in Mueller-Hinton broth up to a concentration of approximately 1.50 × 10^8 CFU/mL, as measured by optical density at 600 nm between 0.06 to 0.11 (0.5 McFarland standard), in a Multiskan SkyHigh spectrophotometer (ThermoFisher Scientific, Waltham, MA, USA). Amounts of 5 µL of the 1.50 × 10^8 CFU/mL suspension were added to each well (except for the blank) for a final well concentration of approximately 6 × 10^6 CFU/mL. The plate was incubated for 24 h at 37 °C (BE 500, Memmert GmbH, Büchenbach, Germany) and optical density was measured at 600 nm in a Multiskan SkyHigh spectrophotometer (ThermoFisher Scientific, Waltham, MI, USA). Following the measurement of optical density, plates were visually inspected to determine the MIC. Subsequently, 100 µL of the concentration associated to the MIC and 100 µL of the next higher concentration were added to Petri dishes containing Mueller-Hinton Agar. The dishes were then incubated for 24 h at 37 °C (BE 500, Memmert GmbH, Büchenbach, Germany). After incubation, the Petri dishes were visually inspected, and the MBC was determined in the absence of growth. IC50 values were interpolated from regressions with correlation values above 0.70. Growth inhibition percentages were calculated as follows: Growth inhibition %=1−AbsPEPTIDE or ANTIBIOTIC−Median AbsBLANK/Median AbsPBS−Median AbsBLANK×100

S. aureus ATCC® 6538 = assay type: cell-based, Staphylococcus aureus; conditions: CLSI broth microdilution, Mueller-Hinton broth, peptide 30 µM, ~6 × 10^6 CFU/mL, 24 h 37 °C, OD600; triplicate, three independent assays; NA = no activity
Method: as §1, §2

## WKKIKKFF-NH2 [PvAMP66]
S. aureus ATCC® 29213
  S. aureus ATCC® 29213 (Inhibition %): 98.25 ± 0.39 %
S. aureus ATCC® 6538
  S. aureus ATCC® 6538 (Inhibition %): 139.72 ± 1.90 %
